Results as given in patent US12528837B2, “Aryl substituted polymyxin derivatives” (priority 2018, dated 2026).
≈ marks a conversion by molar mass, not a printed value. Read-outs that look alike come from different tables or passages of the source. *1 amine or outer side, *2 acyl side, *3 side chain or, on linkers, in order; H or OH if unused. Where a SMILES comes first, the peptide text is derived from it. Bridges are numbered along the chain shown (N, C = ends). [ ]: non-standard residue; d: D form. The star is where a group is joined. GABA(3S-Bn) = O=C(C[C@@H](CN[*:1])Cc1ccccc1)[*:2]; GABA(3R-Bn) = O=C(C[C@H](CN[*:1])Cc1ccccc1)[*:2]; X14 = NC[C@@H](CC(=O)*)c1cccc(-c2ccsc2)c1; X20 = NC[C@H](CC(=O)*)c1cccc(-c2ccccc2)c1; X23 = NC[C@H](CC(=O)*)c1cccc(-c2ccsc2)c1; X18 = NC[C@@H](CC(=O)*)c1cc(Cl)cc(Cl)c1; X24 = NCC[C@@H](C(=O)*)c1ccc(Cl)cc1; X25 = NCC[C@@H](C(=O)*)c1cccc(Cl)c1; X1 = NC[C@@H](CC(=O)*)c1cccc(Cl)c1; X10 = Cc1cccc([C@@H](CN)CC(=O)*)c1; dNle = CCCC[C@@H](N)C(=O)O; Dab = NCC[C@H](N)C(=O)O; Abu = CC[C@H](N)C(=O)O; Dap = NC[C@H](N)C(=O)O

How the values were obtained:
[1] = system: A. baumannii NCTC 13424; assay type: cell-based
Procedure: (§1) The inoculum was prepared by making a direct suspension of isolated colonies (selected from an 18-24 hour Mueller-Hinton agar plate) adjusted to the 0.5 McFarland standard. […] The assays were performed in duplicate. […] The MIC values are quoted in μg/mL.

[2] = system: P. aeruginosa ATCC 27853; assay type: cell-based
Procedure: as §1

[3] = system: HK-2 cells; assay: In vitro renal cell toxicity assay (HK-2); assay type: cell-based
Procedure: The in vitro renal cell toxicity assay was performed according to the following protocol. […] Cells were seeded at 7,500 cells per well in 96-well plates and allowed to adhere overnight. […] Water and DMSO levels were kept constant at 5% and 0.5% respectively. The test compounds were incubated with cells for 24 h at 37° C. 5% CO2 in a humidified atmosphere. […] Media only background values were subtracted before the data was analysed using GraphPad Prism. Individual values were normalised to the vehicle control wells for each compound. Compound concentration values were plotted as log values to enable a dose-response curve to be fitted. The bottom of the curve was constrained to zero and IC50 values were determined. IC50 values are expressed relative to that for PMB in the same experiment. Where multiple determinations have been made, median values are presented.

[4] = Kidney drug level after subcutaneous dose in mouse; assay type: in vivo; settings: mouse, in vivo
Procedure: Four hours after dosing the animals were euthanised and kidneys removed, trimmed of fat and connective tissue, weighed and immediately snap-frozen. After thawing at room temperature, pairs of kidneys from each animal were placed in 2 mL conical tubes containing pre-weighed ceria-stabilised zirconium oxide beads. […] After 10 min. centrifugation at 13,000 rpm and 6° C., 200 μl of the supernatants were transferred into glass inserts and analysed by LC-MS-MS.

[5] = system: K. pneumoniae CA64; assay type: cell-based
Procedure: (§2) The inoculum was prepared by making a direct suspension of isolated colonies (selected from an 18-24 hour Mueller-Hinton agar plate) adjusted to the 0.5 McFarland standard. […] The assays were performed in duplicate. […] Several of the compounds were subjected to multiple tests, and where this is the case, the MIC presented is the median value obtained. The MIC values are quoted in μg/mL.

[6] = system: P. aeruginosa CCUG 59347; assay type: cell-based
Procedure: as §2

[7] = system: E. coli CA58; assay type: cell-based
Procedure: as §2

[8] = system: K. pneumoniae ATCC 13822; assay type: cell-based
Procedure: as §1

[9] = system: E. coli ATCC 25922; assay type: cell-based; settings: cation-adjusted Mueller-Hinton Broth, 18-20 h, 35° C.
Procedure: as §1

[10] = cation-adjusted Mueller-Hinton Broth, 18-20 h, 35° C.

SMILES	MIC P. aeruginosa ATCC 27853 ([2]; ATCC 27853)	tissue level at time at 4 h ([4]; sc, 17.2 mg/kg)	MIC K. pneumoniae CA64 ([5]; CA64)	MIC P. aeruginosa CCUG 59347 ([6]; CCUG 59347)	MIC E. coli CA58 ([7]; CA58)	HK-2 rel to PMB [3]	MIC P. aeruginosa ATCC 27853 [2, 10]	MIC K. pneumoniae CA64 [5, 10]	MIC P. aeruginosa CCUG 59347 [6, 10]	MIC E. coli CA58 [7, 10]	also measured
CCCC[C@H]1NC(=O)[C@H](CCN)NC(=O)[C@@H](NC(=O)[C@H](CN)NC(=O)[C@@H](NC(=O)C[C@H](CN)c2cc(Cl)cc(Cl)c2)[C@@H](C)O)CCNC(=O)[C@H]([C@@H](C)O)NC(=O)[C@H](CCN)NC(=O)[C@H](CCN)NC(=O)[C@H](CC)NC1=O [Example 28, (S)-4-amino-3-(3,5- dichlorophenyl)butanoyl- Thr-Dap- Cyclo[Dab-Dab- DnorLeu-Abu-Dab- Dab-Thr]] (X18-T[Dap][Dab][Dab][dNle][Abu][Dab][Dab]T; lactam 3-C)	0.25 µg/mL (≈ 0.224 µM)	408000 ng/g	8 µg/mL (≈ 7.16 µM)	0.25 µg/mL (≈ 0.224 µM)	16 µg/mL (≈ 14.3 µM)	68.5					MIC A. baumannii NCTC 13424 ([1]; NCTC 13424): 0.06 µg/mL (≈ 0.0537 µM)
CC(C)C[C@@H]1NC(=O)[C@@H](CC(C)C)NC(=O)[C@H](CCN)NC(=O)[C@@H](NC(=O)[C@H](CN)NC(=O)[C@@H](NC(=O)C[C@@H](CN)Cc2ccccc2)[C@@H](C)O)CCNC(=O)[C@H]([C@@H](C)O)NC(=O)[C@H](CCN)NC(=O)[C@H](CCN)NC1=O [Example 8, (S)-4-amino-3- benzylbutanoyl-Thr- Dap-Cyclo[Dab-Dab- DLeu-Leu-Dab-Dab- Thr], Isomer 2] ({GABA(3S-Bn)}-T[Dap][Dab][Dab][dL]L[Dab][Dab]T; lactam 3-C)							0.06 µg/mL (≈ 0.055 µM)	32 µg/mL (≈ 29.3 µM)	0.5 µg/mL (≈ 0.459 µM)	16 µg/mL (≈ 14.7 µM)	MIC A. baumannii NCTC 13424 [1, 10]: 0.25 µg/mL (≈ 0.229 µM)
CC(C)C[C@@H]1NC(=O)[C@@H](Cc2ccccc2)NC(=O)[C@H](CCN)NC(=O)[C@@H](NC(=O)[C@H](CN)NC(=O)[C@@H](NC(=O)[C@H](CCN)c2ccc(Cl)cc2)[C@@H](C)O)CCNC(=O)[C@H]([C@@H](C)O)NC(=O)[C@H](CCN)NC(=O)[C@H](CCN)NC1=O [reference compound] (X24-T[Dap][Dab][Dab][dF]L[Dab][Dab]T; lactam 3-C)											Cytotoxicity (measured IC50 relative to that recorded for Polymyxin B) [3]: 4.8; 4 hr kidney level/rel. cytotoxicity [4]: 111; Drug Level in Kidney (μg/g kidney, 4 h) ([4]; sc, 17.2 mg/kg): 533 μg/g kidney
CC[C@@H]1NC(=O)[C@@H](CC(C)C)NC(=O)[C@H](CCN)NC(=O)[C@@H](NC(=O)[C@H](CN)NC(=O)[C@@H](NC(=O)C[C@@H](CN)c2cccc(-c3ccsc3)c2)[C@@H](C)O)CCNC(=O)[C@H]([C@@H](C)O)NC(=O)[C@H](CCN)NC(=O)[C@H](CCN)NC1=O [Example 31, (R)-4-amino-3-(3- (thiophen-3-yl)phenyl)butanoyl- Thr-Dap-Cyclo[Dab- Dab-DLeu-Abu-Dab- Dab-Thr]] (X23-T[Dap][Dab][Dab][dL][Abu][Dab][Dab]T; lactam 3-C)	0.25 µg/mL (≈ 0.221 µM)		4 µg/mL (≈ 3.54 µM)	0.25 µg/mL (≈ 0.221 µM)	16 µg/mL (≈ 14.2 µM)						MIC K. pneumoniae ATCC 13822 ([8]; ATCC 13822): 0.25 µg/mL (≈ 0.221 µM)
CC(C)C[C@@H]1NC(=O)[C@@H](CC(C)C)NC(=O)[C@H](CCN)NC(=O)[C@@H](NC(=O)[C@H](CN)NC(=O)[C@@H](NC(=O)C[C@H](CN)Cc2ccccc2)[C@@H](C)O)CCNC(=O)[C@H]([C@@H](C)O)NC(=O)[C@H](CCN)NC(=O)[C@H](CCN)NC1=O [Example 7, (R)-4-amino-3- benzylbutanoyl -Thr- Dap-Cyclo[Dab-Dab- DLeu-Leu-Dab-Dab- Thr]. Isomer 1] ({GABA(3R-Bn)}-T[Dap][Dab][Dab][dL]L[Dab][Dab]T; lactam 3-C)								32 µg/mL (≈ 29.3 µM)	0.25 µg/mL (≈ 0.229 µM)	16 µg/mL (≈ 14.7 µM)	MIC E. coli ATCC 25922 [9]: 0.25 µg/mL (≈ 0.229 µM)
CC[C@@H]1NC(=O)[C@@H](CC(C)C)NC(=O)[C@H](CCN)NC(=O)[C@@H](NC(=O)[C@H](CN)NC(=O)[C@@H](NC(=O)C[C@@H](CN)c2cccc(-c3ccccc3)c2)[C@@H](C)O)CCNC(=O)[C@H]([C@@H](C)O)NC(=O)[C@H](CCN)NC(=O)[C@H](CCN)NC1=O [Example 25] (X20-T[Dap][Dab][Dab][dL][Abu][Dab][Dab]T; lactam 3-C)							0.25 µg/mL (≈ 0.222 µM)	2 µg/mL (≈ 1.78 µM)	0.5 µg/mL (≈ 0.445 µM)	16 µg/mL (≈ 14.2 µM)	MIC E. coli ATCC 25922 [9]: 0.25 µg/mL (≈ 0.222 µM); MIC K. pneumoniae ATCC 13822 [8, 10]: 0.5 µg/mL (≈ 0.445 µM)
CC[C@@H]1NC(=O)[C@@H](CC(C)C)NC(=O)[C@H](CCN)NC(=O)[C@@H](NC(=O)[C@H](CN)NC(=O)[C@@H](NC(=O)C[C@H](CN)c2cccc(Cl)c2)[C@@H](C)O)CCNC(=O)[C@H]([C@@H](C)O)NC(=O)[C@H](CCN)NC(=O)[C@H](CCN)NC1=O [Example 23] (X1-T[Dap][Dab][Dab][dL][Abu][Dab][Dab]T; lactam 3-C)							0.25 µg/mL (≈ 0.231 µM)	64 µg/mL (≈ 59.1 µM)	0.5 µg/mL (≈ 0.462 µM)	32 µg/mL (≈ 29.6 µM)	HK-2 rel to PMB ([3]; IC50 relative to PMB in the same experiment, 24 h): >41; tissue level at time at 4 h ([4]; mice, 17.2 mg/kg free base sc, 4 h, read-out: 4 hr kidney level): 263000 ng/g
CC(C)C[C@@H]1NC(=O)[C@@H](Cc2ccccc2)NC(=O)[C@H](CCN)NC(=O)[C@@H](NC(=O)[C@H](CN)NC(=O)[C@@H](NC(=O)[C@H](CCN)c2cccc(Cl)c2)[C@@H](C)O)CCNC(=O)[C@H]([C@@H](C)O)NC(=O)[C@H](CCN)NC(=O)[C@H](CCN)NC1=O [reference compound] (X25-T[Dap][Dab][Dab][dF]L[Dab][Dab]T; lactam 3-C)											Cytotoxicity (measured IC50 relative to that recorded for Polymyxin B) [3]: 5.1; 4 hr kidney level/rel. cytotoxicity [4]: 115; Drug Level in Kidney (μg/g kidney, 4 h) ([4]; sc, 17.2 mg/kg): 589 μg/g kidney

Now from value to compound, other results behind:

MIC P. aeruginosa ATCC 27853 ([2]; ATCC 27853)	tissue level at time at 4 h ([4]; sc, 17.2 mg/kg)	MIC K. pneumoniae CA64 ([5]; CA64)	MIC P. aeruginosa CCUG 59347 ([6]; CCUG 59347)	MIC E. coli CA58 ([7]; CA58)	SMILES	HK-2 rel to PMB [3]	MIC P. aeruginosa ATCC 27853 [2, 10]	MIC K. pneumoniae CA64 [5, 10]	MIC P. aeruginosa CCUG 59347 [6, 10]	MIC E. coli CA58 [7, 10]	also measured
0.25 µg/mL (≈ 0.221 µM)	252000 ng/g	16 µg/mL (≈ 14.2 µM)	0.5 µg/mL (≈ 0.442 µM)	8 µg/mL (≈ 7.08 µM)	CC[C@@H]1NC(=O)[C@@H](CC(C)C)NC(=O)[C@H](CCN)NC(=O)[C@@H](NC(=O)[C@H](CN)NC(=O)[C@@H](NC(=O)C[C@H](CN)c2cccc(-c3ccsc3)c2)[C@@H](C)O)CCNC(=O)[C@H]([C@@H](C)O)NC(=O)[C@H](CCN)NC(=O)[C@H](CCN)NC1=O [Example 30, (S)-4-amino-3-(3- (thiophen-3-yl)phenyl)butanoyl- Thr-Dap-Cyclo[Dab- Dab-DLeu-Abu-Dab- Dab-Thr]] (X14-T[Dap][Dab][Dab][dL][Abu][Dab][Dab]T; lactam 3-C)	37.5					MIC A. baumannii NCTC 13424 ([1]; NCTC 13424): 0.06 µg/mL (≈ 0.0531 µM)
0.25 µg/mL (≈ 0.222 µM)	209000 ng/g	32 µg/mL (≈ 28.5 µM)	0.5 µg/mL (≈ 0.445 µM)	16 µg/mL (≈ 14.2 µM)	Cc1cccc([C@@H](CN)CC(=O)N[C@H](C(=O)N[C@@H](CN)C(=O)N[C@H]2CCNC(=O)[C@H]([C@@H](C)O)NC(=O)[C@H](CCN)NC(=O)[C@H](CCN)NC(=O)[C@H](CC(C)C)NC(=O)[C@@H](Cc3ccccc3)NC(=O)[C@H](CCN)NC2=O)[C@@H](C)O)c1 [Example 21, (S)-4-amino-3-(m- tolyl)butanoyl-Thr- Dap-Cyclo[Dab-Dab- DPhe-Leu-Dab-Dab- Thr]] (X10-T[Dap][Dab][Dab][dF]L[Dab][Dab]T; lactam 3-C)	26.7					MIC K. pneumoniae ATCC 13822 ([8]; ATCC 13822): 0.25 µg/mL (≈ 0.222 µM)
